Where “and” joins values, the source holds several entries; their conditions need not be identical. Equal values may be shown once.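 Compound exposure: 48 hours, 5 concentrations, 96-well plates. GI50 marks 50% less growth. TGI: total growth inhibition.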
How the values were obtained:
Test in all cases: NCI-60 cell line screen, 48 h
786-0 renal = tested on: 786-0 renal
MDA-MB-435 = tested on: MDA-MB-435
RXF 393 renal = tested on: RXF 393 renal
SF-295 CNS = tested on: SF-295 CNS
SK-MEL-2 melanoma = tested on: SK-MEL-2 melanoma
SK-OV-3 ovarian = tested on: SK-OV-3 ovarian
SW-620 colon = tested on: SW-620 colon
UACC-257 melanoma = tested on: UACC-257 melanoma
CCRF-CEM leukemia = tested on: CCRF-CEM leukemia
SK-MEL-5 melanoma = tested on: SK-MEL-5 melanoma

Structure (SMILES) | GI50 (786-0 renal) | TGI (786-0 renal) | GI50 (MDA-MB-435) [nM] | TGI (MDA-MB-435) | GI50 (RXF 393 renal) [µM] | TGI (RXF 393 renal) [µM] | GI50 (SF-295 CNS) [nM] | TGI (SF-295 CNS) | GI50 (SK-MEL-2 melanoma) | TGI (SK-MEL-2 melanoma) | GI50 (SK-OV-3 ovarian) [µM] | TGI (SK-OV-3 ovarian) [µM] | GI50 (SW-620 colon) [µM] | TGI (SW-620 colon) | GI50 (UACC-257 melanoma) [µM] | TGI (UACC-257 melanoma) [µM] | GI50 (CCRF-CEM leukemia) | TGI (CCRF-CEM leukemia) | GI50 (SK-MEL-5 melanoma) | TGI (SK-MEL-5 melanoma) [µM]
COc1ccc(S(=O)(=O)NCCNc2nccc(-c3c(-c4ccccc4)nc4sccn34)n2)cc1 | 3420 nM | > 100 µM | 1220 | > 100 µM | 5.71 | 91 | 6520 | > 100 µM | 4.98 µM | > 100 µM | 4.18 | > 100 | 5.03 | > 100 µM | 6.47 | > 100 |  |  |  | 
CCCCCCCCCCCCCCCCCC1=NC(C)(C)CN1CCO | 1730 nM | 3.2 µM | 1730 | 3.42 µM |  |  | 1790 | 3.68 µM | 1.97 µM | 3.63 µM | 1.72 | 3.16 | 1.75 | 3.21 µM | 1.8 | 3.57 | 1920 nM | 5.05 µM | 2160 nM | 4.95
Cc1cc(N)c2ccccc2[n+]1CCCCCCCCCC[n+]1c(C)cc(N)c2ccccc21 | 512 nM and 3750 nM | 10.9 µM and 21.3 µM and 25.5 µM | 245 | 0.926 µM and 3.18 µM |  |  | 189 | 1.84 µM and 11.9 µM and 3.61 µM | 0.674 µM and 1.4 µM | 1.93 µM and 9.03 µM and 3.78 µM |  |  | 0.508 | > 50 µM and 33.9 µM and > 100 µM |  |  | 635 nM and 1300 nM | 3.53 µM and 16.2 µM and 6.15 µM | 67.9 nM and 367 nM | 
CN1C(=O)C23CC4=CC=CC(O)C4N2C(=O)C1(CO)SS3 (centres undefined) |  | 0.222 µM |  | 2.56 µM |  | 0.38 |  | 0.389 µM |  | 0.617 µM |  | 2.75 |  | 0.634 µM |  | 0.936 |  |  |  | 0.38
C=C(C)[C@]12CC(C)C34OC(/C=C\C=C\CCCCCCCCC)(O[C@@H]1[C@@H]3[C@@H]1O[C@]1(CO)[C@@H](O)[C@]1(O)C(=O)C(C)=C[C@@H]41)O2 (some centres undefined) |  | 21.5 µM | < 0.1 | 21.5 µM |  | 28.6 |  |  |  |  |  | 35.1 |  |  |  | 28.5 |  | > 26.1 µM | 0.417 nM | 24.3
O=C(CC(C(=O)O)N1CCOCC1)c1ccccc1 (centres undefined) |  | 30.1 µM |  |  |  | 34.3 |  | > 100 µM |  | 34.9 µM |  | > 100 |  | 44.1 µM |  | 27.2 |  | 15 µM |  | 43
O=C(Nc1ccccc1)Nc1ccccc1CNc1nc(Nc2ccc(OCCN3CCCC3)cc2)ncc1Cl | 1110 nM | 2.78 µM | 3100 | 9.58 µM | 1.44 | 5.84 | 7240 | 14 µM | 4.74 µM | 13.5 µM |  |  | 4.67 | 12.7 µM | 7.22 | 18.3 | 2020 nM | 17.8 µM | 5270 nM | 11.9
C#Cc1ccc(-n2c(/C=C/c3cc(OC)c(OC)c(OC)c3)nc3ncccc3c2=O)cc1 | 5310 nM | > 100 µM | 1980 | 5.35 µM | 7.04 | > 100 |  |  | 4.54 µM | 22.1 µM | 5.33 | 77.7 | 3.29 | 49.6 µM | 9.74 | > 100 | 4900 nM | > 100 µM | 1780 nM | 4.4
O=C1CC2Sc3ccccc3N=C2N1c1ccc(Cl)cc1Cl (centres undefined) |  | > 100 µM |  |  |  | > 100 |  | > 100 µM |  | > 100 µM |  |  |  | > 100 µM |  | > 100 |  | 52.9 µM |  | > 100
CC(C)=C1CCC(CN2CCCC2)C1=O (centres undefined) |  | 30.8 µM |  |  |  | 39.5 |  | > 100 µM |  | 77.2 µM |  |  |  | 47.5 µM |  | 66.7 |  | 39 µM |  | > 100
Cc1cccc(N2C(=O)/C(=C/c3ccc(N(CCC#N)CCC#N)cc3C)N=C2c2cc([N+](=O)[O-])ccc2Cl)c1 |  | > 100 µM |  |  |  |  |  | > 100 µM |  | > 100 µM |  | > 100 |  | > 100 µM |  | > 100 |  | > 100 µM |  | > 100
O=C(OCc1nc2ccc(Br)cc2c(=O)n1-c1ccccc1)c1ccccc1O |  | > 100 µM |  |  |  | > 100 |  | > 100 µM |  | > 100 µM |  | > 100 |  | > 100 µM |  | > 100 |  | > 100 µM |  | 68.7
COc1ccc(N(Cc2cc(OC)c(OC)c(OC)c2)C2OC(=O)c3ccccc32)cc1 (centres undefined) | 701 nM | > 100 µM | 165 | 0.433 µM | 0.612 | > 100 | 534 | > 100 µM |  |  | 1.23 | > 100 | 0.374 | > 100 µM |  |  | 435 nM | > 100 µM | 474 nM | 53.1
CCOc1cccnc1/C=N/NC(N)=S | 3660 nM | > 100 µM | 4530 | > 100 µM |  |  | 3920 | > 100 µM | 9.93 µM | > 100 µM | 5.01 | > 100 | 4.46 | > 100 µM | 3.99 | 39.1 | 3000 nM | 12 µM | 3400 nM | > 100
CCOC(=O)NNC(=O)NC12CC3CC(CC(C3)C1)C2 |  | > 100 µM |  |  |  | > 100 |  | > 100 µM |  | > 100 µM |  | > 100 |  | > 100 µM |  | > 100 |  | > 100 µM |  | > 100
CCOC(=N)CC(=O)NC(C)c1ccccc1 (centres undefined) |  | > 100 µM |  |  |  | > 100 |  | > 100 µM |  | > 100 µM |  | > 100 |  | > 100 µM |  | > 100 |  | > 100 µM |  | > 100
O=C1/C(=C/c2ccccc2)CN(C(=O)OCC(Cl)(Cl)Cl)C/C1=C\c1ccccc1 |  | 5.46 µM |  |  |  | 3.87 |  | 3.92 µM |  | 23.5 µM |  | 24.6 |  | 2.3 µM |  | 4.48 |  | 13.5 µM |  | 2.95

Reference: PubChem BioAssay (NCI)
